According to ChEMBL document CHEMBL4219224, “Structure based drug design and in vitro metabolism study: Discovery of N-(4-methylthiophenyl)-N,2-dimethyl-cyclopenta[d]pyrimidine as a potent microtubule targeting agent” (Bioorg Med Chem, 2018):

Experiments:
Format in all cases: functional
[1] = tested on: HOP-92; experiment: Growth inhibition of human HOP92 cells incubated for 48 hrs by sulforhodamine B assay; details: HOP-92, 48 h
[2] = tested on: Malme-3M; experiment: Growth inhibition of human MALME-3M cells incubated for 48 hrs by sulforhodamine B assay
[3] = tested on: ACHN; experiment: Growth inhibition of human ACHN cells incubated for 48 hrs by sulforhodamine B assay
[4] = tested on: UACC-62; experiment: Growth inhibition of human UACC62 cells incubated for 48 hrs by sulforhodamine B assay; details: UACC-62, 48 h
[5] = tested on: HT-29; experiment: Growth inhibition of human HT-29 cells incubated for 48 hrs by sulforhodamine B assay; details: HT-29, 48 h
[6] = tested on: U-251; experiment: Growth inhibition of human U251 cells incubated for 48 hrs by sulforhodamine B assay; details: U-251, 48 h
[7] = tested on: SF-295; experiment: Growth inhibition of human SF295 cells incubated for 48 hrs by sulforhodamine B assay; details: SF-295, 48 h
[8] = tested on: OVCAR-3; experiment: Growth inhibition of human OVCAR3 cells incubated for 48 hrs by sulforhodamine B assay; details: OVCAR-3, 48 h
[9] = tested on: NCI-H460; experiment: Growth inhibition of human NCI-H460 cells incubated for 48 hrs by sulforhodamine B assay; details: NCI-H460, 48 h
[10] = tested on: EKVX; experiment: Growth inhibition of human EKVX cells incubated for 48 hrs by sulforhodamine B assay
[11] = tested on: SK-MEL-5; experiment: Growth inhibition of human SK-MEL-5 cells incubated for 48 hrs by sulforhodamine B assay; details: SK-MEL-5, 48 h
[12] = tested on: MOLT-4; experiment: Growth inhibition of human MOLT4 cells incubated for 48 hrs by sulforhodamine B assay; details: MOLT-4, 48 h
[13] = tested on: COLO 205; experiment: Growth inhibition of human COLO205 cells incubated for 48 hrs by sulforhodamine B assay; details: COLO 205, 48 h
[14] = tested on: SNB-19; experiment: Growth inhibition of human SNB19 cells incubated for 48 hrs by sulforhodamine B assay; details: SNB-19, 48 h
[15] = tested on: Hs-578T; experiment: Growth inhibition of human Hs578T cells incubated for 48 hrs by sulforhodamine B assay
[16] = tested on: HL-60(TB); experiment: Growth inhibition of human HL-60(TB) cells incubated for 48 hrs by sulforhodamine B assay; details: HL-60, 48 h
[17] = tested on: HCT-116; experiment: Growth inhibition of human HCT116 cells incubated for 48 hrs by sulforhodamine B assay; details: HCT-116, 48 h
[18] = tested on: SNB-75; experiment: Growth inhibition of human SNB75 cells incubated for 48 hrs by sulforhodamine B assay; details: SNB-75, 48 h
[19] = tested on: HOP-62; experiment: Growth inhibition of human HOP62 cells incubated for 48 hrs by sulforhodamine B assay; details: HOP-62, 48 h
[20] = tested on: K562; experiment: Growth inhibition of human K562 cells incubated for 48 hrs by sulforhodamine B assay; details: K562, 48 h
[21] = tested on: RPMI-8226; experiment: Growth inhibition of human RPMI8226 cells incubated for 48 hrs by sulforhodamine B assay; details: RPMI-8226, 48 h
[22] = tested on: SW-620; experiment: Growth inhibition of human SW620 cells incubated for 48 hrs by sulforhodamine B assay; details: SW-620, 48 h
[23] = tested on: SF-539; experiment: Growth inhibition of human SF539 cells incubated for 48 hrs by sulforhodamine B assay; details: SF-539, 48 h
[24] = tested on: SK-MEL-28; experiment: Growth inhibition of human SK-MEL-28 cells incubated for 48 hrs by sulforhodamine B assay; details: SK-MEL-28, 48 h
[25] = tested on: SK-MEL-2; experiment: Growth inhibition of human SK-MEL-2 cells incubated for 48 hrs by sulforhodamine B assay; details: SK-MEL-2, 48 h
[26] = tested on: MCF7; experiment: Growth inhibition of human MCF7 cells incubated for 48 hrs by sulforhodamine B assay; details: MCF7, 48 h
[27] = tested on: OVCAR-5; experiment: Growth inhibition of human OVCAR5 cells incubated for 48 hrs by sulforhodamine B assay; details: OVCAR-5, 48 h
[28] = tested on: LOX IMVI; experiment: Growth inhibition of human LOXIMVI cells incubated for 48 hrs by sulforhodamine B assay
[29] = tested on: CCRF-CEM; experiment: Growth inhibition of human CCRF-CEM cells incubated for 48 hrs by sulforhodamine B assay
[30] = tested on: PC-3; experiment: Growth inhibition of human PC3 cells incubated for 48 hrs by sulforhodamine B assay; details: PC-3, 48 h
[31] = tested on: RXF 393; experiment: Growth inhibition of human RXF393 cells incubated for 48 hrs by sulforhodamine B assay; details: RXF 393, 48 h
[32] = tested on: NCI-H23; experiment: Growth inhibition of human NCI-H23 cells incubated for 48 hrs by sulforhodamine B assay; details: NCI-H23, 48 h
[33] = tested on: MDA-MB-231; experiment: Growth inhibition of human MDA-MB-231 cells incubated for 48 hrs by sulforhodamine B assay; details: MDA-MB-231, 48 h
[34] = tested on: DU-145; experiment: Growth inhibition of human DU145 cells incubated for 48 hrs by sulforhodamine B assay; details: DU-145, 48 h
[35] = tested on: SF-268; experiment: Growth inhibition of human SF268 cells incubated for 48 hrs by sulforhodamine B assay; details: SF-268, 48 h
[36] = tested on: SR; experiment: Growth inhibition of human SR cells incubated for 48 hrs by sulforhodamine B assay
[37] = tested on: TK-10; experiment: Growth inhibition of human TK10 cells incubated for 48 hrs by sulforhodamine B assay; details: TK-10, 48 h
[38] = tested on: 786-0; experiment: Growth inhibition of human 786-0 cells incubated for 48 hrs by sulforhodamine B assay; details: 786-0, 48 h
[39] = tested on: MDA-MB-435; experiment: Growth inhibition of human MDA-MB-435 cells incubated for 48 hrs by sulforhodamine B assay; details: MDA-MB-435, 48 h
[40] = tested on: OVCAR-8; experiment: Growth inhibition of human OVCAR8 cells incubated for 48 hrs by sulforhodamine B assay; details: OVCAR-8, 48 h
[41] = tested on: NCI-H322M; experiment: Growth inhibition of human NCI-H322M cells incubated for 48 hrs by sulforhodamine B assay
[42] = tested on: CAKI-1; experiment: Growth inhibition of human Caki1 cells incubated for 48 hrs by sulforhodamine B assay; details: CAKI-1, 48 h
[43] = tested on: NCI-H226; experiment: Growth inhibition of human NCI-H226 cells incubated for 48 hrs by sulforhodamine B assay; details: NCI-H226, 48 h
[44] = tested on: SK-OV-3; experiment: Growth inhibition of human SKOV3 cells incubated for 48 hrs by sulforhodamine B assay; details: SK-OV-3, 48 h
[45] = tested on: UO-31; experiment: Growth inhibition of human UO31 cells incubated for 48 hrs by sulforhodamine B assay; details: UO-31, 48 h
[46] = tested on: MDA-MB-468; experiment: Growth inhibition of human MDA-MB-468 cells incubated for 48 hrs by sulforhodamine B assay; details: MDA-MB-468, 48 h
[47] = tested on: OVCAR-4; experiment: Growth inhibition of human OVCAR4 cells incubated for 48 hrs by sulforhodamine B assay; details: OVCAR-4, 48 h
[48] = tested on: NCI-H522; experiment: Growth inhibition of human NCI-H522 cells incubated for 48 hrs by sulforhodamine B assay; details: NCI-H522, 48 h
[49] = tested on: A498; experiment: Growth inhibition of human A498 cells incubated for 48 hrs by sulforhodamine B assay; details: A498, 48 h
[50] = tested on: A549; experiment: Growth inhibition of human A549/ATCC cells incubated for 48 hrs by sulforhodamine B assay; details: A549, 48 h
[51] = tested on: BT-549; experiment: Growth inhibition of human BT549 cells incubated for 48 hrs by sulforhodamine B assay; details: BT-549, 48 h
[52] = tested on: HCC 2998; experiment: Growth inhibition of human HCC2998 cells incubated for 48 hrs by sulforhodamine B assay; details: HCC 2998, 48 h
[53] = tested on: KM12; experiment: Growth inhibition of human KM12 cells incubated for 48 hrs by sulforhodamine B assay; details: KM12, 48 h
[54] = tested on: HCT-15; experiment: Growth inhibition of human HCT15 cells incubated for 48 hrs by sulforhodamine B assay; details: HCT-15, 48 h
[55] = tested on: IGROV-1; experiment: Growth inhibition of human IGROV1 cells incubated for 48 hrs by sulforhodamine B assay; details: IGROV-1, 48 h
[56] = tested on: NCI/ADR-RES; experiment: Growth inhibition of human NCI/ADR-RES cells incubated for 48 hrs by sulforhodamine B assay
[57] = tested on: SN12C; experiment: Growth inhibition of human SN12C cells incubated for 48 hrs by sulforhodamine B assay
[58] = tested on: M14; experiment: Growth inhibition of human M14 cells incubated for 48 hrs by sulforhodamine B assay; details: M14, 48 h

**Q.** Which results are given for `CC(=O)O[C@H]1C(=O)[C@@]2(C)[C@H]([C@H](OC(=O)c3ccccc3)[C@]3(O)C[C@H](OC(=O)[C@H](O)[C@@H](NC(=O)c4ccccc4)c4ccccc4)C(C)=C1C3(C)C)[C@]1(OC(C)=O)CO[C@@H]1C[C@@H]2O` [PACLITAXEL]?
**A.** GI50 [1]: 25 nM; GI50 [2]: 50 nM; GI50 [3]: 158 nM; GI50 [4]: 5 nM; GI50 [5]: 5 nM; GI50 [6]: 6.3 nM; GI50 [7]: 25 nM; GI50 [8]: 4 nM; GI50 [9]: 6.3 nM; GI50 [10]: 79 nM; GI50 [11]: 5 nM; GI50 [12]: 5 nM; GI50 [13]: 7.9 nM; GI50 [14]: 10 nM; GI50 [15]: 5 nM; GI50 [16]: 4 nM; GI50 [17]: 4 nM; GI50 [18]: 7.9 nM; GI50 [19]: 19 nM; GI50 [20]: 6.3 nM; GI50 [21]: 19.9 nM; GI50 [22]: 4 nM; GI50 [23]: 5 nM; GI50 [24]: 400 nM; GI50 [25]: 400 nM; GI50 [26]: 4 nM; GI50 [27]: 7.9 nM; GI50 [28]: 5 nM; GI50 [29]: 5 nM; GI50 [30]: 6.3 nM; GI50 [31]: 15.8 nM; GI50 [32]: 6.3 nM; GI50 [33]: 12.5 nM; GI50 [34]: 6.3 nM; GI50 [35]: 5 nM; GI50 [36]: 6.3 nM; GI50 [37]: 19.9 nM; GI50 [38]: 39 nM; GI50 [39]: 4 nM; GI50 [40]: 7.9 nM; GI50 [41]: 12.5 nM; GI50 [42]: 158 nM; GI50 [43]: 3.9 nM; GI50 [44]: 6.3 nM; GI50 [45]: 125 nM; GI50 [46]: 12.5 nM; GI50 [47]: 630 nM; GI50 [48]: 15.8 nM; GI50 [49]: 7.9 nM; GI50 [50]: 6.3 nM; GI50 [51]: 4 nM; GI50 [52]: 1 nM; GI50 [53]: 5 nM; GI50 [54]: 125 nM; GI50 [55]: 6.3 nM; GI50 [56]: 630 nM; GI50 [57]: 6.3 nM; GI50 [58]: 5 nM
